Experimental data from patent US8759400B2, “Histone deacetylase inhibitors for enhancing activity of antifungal agents” (MethylGene Inc., priority 2005, dated 2014).
Converted amounts (≈) assume the structure as drawn. Where two headings read alike, the source gives them in different places.

Columns and labels:
HMEC [1] = experiment: Mammalian cytotoxicity, MTT reduction
C. glabrata (ATCC 90030) [2] = experiment: MIC80 and checkerboard synergy with antifungal agents; type: cell-based, Candida glabrata; conditions: Nakaseomyces glabratus, ATCC90030; compound alone; C. glabrata (ATCC 90030); read-out: MIC80
ERG11 expression = ERG11 expression with fluconazole (FIG. 3); type: cell-based; conditions: compound 6 and fluconazole, C. albicans
C. albicans (ATCC 90028) = experiment: MIC80 and checkerboard synergy with antifungal agents; type: cell-based, Candida albicans; conditions: Candida albicans, ATCC90028; compound alone; C. albicans (ATCC 90028); read-out: MIC80
HDAC [3] = experiment: HDAC inhibitory activity in fungal protoplasts (Fluor-de-Lys); type: cell-based, Candida albicans; conditions: C. albicans protoplasts
Method: (§1) Protoplasts of C. albicans and C. glabrata are prepared by the […] method of Franzusoff et al.

HDAC [4] = experiment: as above; type: cell-based, Candida glabrata; conditions: C. glabrata protoplasts
Method: as §1

HMEC [5] = conditions: human
A. fumigatus ATCC 1022 = experiment: MIC80 and checkerboard synergy, broth microdilution (NCCLS M38-A); type: cell-based, Aspergillus fumigatus; conditions: A. fumigatus ATCC 1022
HDAC [6] = experiment: HDAC inhibitory activity in fungal protoplasts (Boc-Lys(Ac)-AMC); type: cell-based, Aspergillus fumigatus; conditions: A. fumigatus protoplasts
A. flavus = experiment: Clinical isolates, CLSI M38-A broth microdilution and checkerboard; type: cell-based; conditions: itraconazole alone, 48 hour endpoint, listed as ITR
C. glabrata = experiment: Post-antifungal effect (PAFE); type: cell-based; conditions: itraconazole alone at 0.25 MIC
Method: The post-antifungal effect (PAFE) is the time needed to achieve one log10 of cell growth after drug removal. One-two colonies are resuspended in 5 ml YPD. […] Cells are incubated at 30° C. overnight. In the morning, the optical density at 600 nm is read. Cells at A600 the closest but not surpassing 0.3 (early log-phase cells) are picked for further treatments as follows: […] Counts of CFU/ml are performed at time zero, before and after diluting the cells and at predetermined time points in order to determine the PAFE and the cidal potential of each drug combination (FIGS. 5-10).

[7] = tested on: C. glabrata parent strain (ATCC 90030) and C. glabrata mutants; experiment: microbe, parasite or virus in culture; type: cell-based; conditions: for MIC80: azole alone
C. glabrata (ATCC 90030) [8] = type: cell-based; conditions: agar plates containing 4×MIC of the relevant azole alone

O=C(CCc1ccc(CCCc2ccccc2)cc1)NO [Cpd 6]
MTT HMEC (HMEC [1]): 40 µM | MIC (C. glabrata (ATCC 90030) [2]): 25 µg/mL | ERG11 expression (ERG11 expression): decreases | MIC (C. albicans (ATCC 90028)): 25 µg/mL | HDAC inhibition IC50 (HDAC [3]): >20 µg/mL | HDAC inhibition IC50 (HDAC [4]): > 20 µg/mL | HDAC inhibition, per cent in parentheses beside IC50 >20 (HDAC [4]; concentration not given): 22%

Nc1ccccc1NC(=O)c1ccc(CNC(=O)OCc2cccnc2)cc1 [MS275, reference compound]
MTT HMEC (HMEC [5]): 22 µM | MIC80 (C. glabrata (ATCC 90030) [2]): > 64 µg/mL | MIC80 (A. fumigatus ATCC 1022; Aspergillus fumigatus, ATCC1022, compound alone, read-out: MIC80): > 128 µg/mL | conc. for 4-fold synergy (A. fumigatus ATCC 1022; with ketoconazole, 48 hours): >128 µg/mL | HDAC inhibition IC50 (HDAC [6]): >40 µg/mL | MIC80 (C. albicans (ATCC 90028)): > 128 µg/mL | HDAC inhibition IC50 (HDAC [3]): >20 µg/mL | HDAC inhibition IC50 (HDAC [4]): >20 µg/mL

CCC(C)n1ncn(-c2ccc(N3CCN(c4ccc(OCC5COC(Cn6cncn6)(c6ccc(Cl)cc6Cl)O5)cc4)CC3)cc2)c1=O (centres unmarked) [itraconazole, reference compound]
ITR MIC (A. flavus; A. flavus isolate 20351.092): 0.5 µg/mL | ITR MIC (A. flavus; A. flavus isolate 20414.083): 1.0 µg/mL | PAFE (C. glabrata): No PAFE | MIC80 ([7]; C. glabrata mutants resistant to that azole): > 64 µg/mL | MIC80 ([7]; C. glabrata parent strain): 1 µg/mL (≈ 1.42 µM) | MIC80 itraconazole relative to wild type ([7]; fluconazole-resistant mutants (all)): 64 × wild type | itraconazole MIC80 in presence of Compound 4 ([7]; itraconazole-resistant mutants): ≤ 1 µg/mL | frequency of resistant C. glabrata mutants (C. glabrata (ATCC 90030) [8]): 3×10^−7
